Active and inactive are the calls of the source.
Key:
[1] = M. tuberculosis growth inhibition, HTS (AID 449762); assay type: functional
[2] = Luminescent dose response cell-based high throughput screening assay for inhibitors of the Janus kinase 2 mutant JAK2V617F. [Related pubchem assays: 1446 (Primary screen.), 1521 (Confirmation assay.), 1486 (Counter screen.)]; assay type: functional
Large T antigen = Large T antigen (Simian virus 40, UniProt P03070); assay type: functional, Betapolyomavirus macacae;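 further: Confirmatory-stage PubChem screen for compounds that inhibit SV40 T antigen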
[3] = biological target: T1, E3 ubiquitin-protein ligase XIAP (Homo sapiens, UniProt P98170); assay: Counter Screen using XIAP-Bir3 for Chemical Antagonists of Bir1/2 domains of IAP-family anti-apoptotic proteins. [Related pubchem assays (depositor defined):AID1018, AID1449, AID1514, AID1638, AID1749, AID1750, AID488957, AID488963]
[4] = biological target: T1, E3 ubiquitin-protein ligase XIAP; assay: XIAP antagonists, biochemical, IAP family, fluorescence polarization (AID 1018); assay type: functional
H9c2 = assay: cells; assay type: functional, cell-based; conditions: Rattus norvegicus, H9c2, Myocardium;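 further: confirmatory concentration-response retest of ultra-high-throughput screening hits for modulation of myocardial damage; cell death induced by hydrogen peroxide oxidative stress; compound pretreatment for 60 min then peroxide exposure for 2 h; potency is for protecting the cells against peroxide damage rather than for killing them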
Mucolipin-3 = Mucolipin-3 (Homo sapiens, UniProt Q8TDD5); assay: Dose response cell-based high-throughput screening assay for agonists of the transient receptor potential channel ML3 (TRPML3). [Related pubchem assays: 1526, 1424, 1448 ]; assay type: functional
Ion channel NompC = Ion channel NompC (Danio rerio, UniProt Q7T1G6); assay: Fluorescence counterscreen assay for TRPML3 agonists: dose response cell-based high-throughput screening assay to identify agonists of the transient receptor potential channel N1 (TRPN1). [Related pubchem assays: 1526, 1424, 1448 ]; assay type: functional
[5] = P. falciparum late gametocyte killing, dose response, luminescence (AID 1117278); assay type: functional, cell-based;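 further: gametocytes exposed to compound for 24 hours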
[6] = Jurkat T cell cytotoxicity, dose response, cytotoxicity control for P. falciparum gametocyte viability project, luminescence (AID 1117277); assay type: functional, cell-based;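 further: potency reflects loss of cellular ATP meaning fewer viable cells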
[7] = biological target: Peroxisome proliferator-activated receptor gamma/Nuclear receptor corepressor 2 (Homo sapiens, UniProt P37231+Q9Y618); assay: Counterscreen for NR2E3 inverse agonists: TR-FRET-based biochemical high throughput dose response assay to identify inverse agonists of the interaction between peroxisome proliferator-activated receptor gamma (PPARg) and nuclear receptor co-repressor 2 (NCOR2).; assay type: functional
[8] = biological target: Photoreceptor-specific nuclear receptor (Homo sapiens, UniProt Q9Y5X4); assay: NR2E3 inverse agonists, dose response, biochemical, TR-FRET (AID 463256); assay type: functional
BJ [9] = assay: cytotoxicity toward BJ-TERT fibroblasts, dose response, cell-based, RAS-independent, luminescence (AID 1933); assay type: functional; conditions: Homo sapiens
BJ [10] = assay: cells; assay type: functional, cell-based; conditions: Homo sapiens
[11] = Luminescence-based dose response cell-based high throughput screening assay for cytotoxic compounds using the IEC-6 intestinal epithelial cell line. [Related pubchem assays: 1858 (Summary AID.), 1825 (Counterscreen.), 1907 (Confirmation screen.)]; assay type: functional
BJ [12] = assay: cytotoxicity toward BJ-TERT-LT-ST fibroblasts, dose response, cell-based, RAS-independent, luminescence (AID 1935); assay type: functional; conditions: Homo sapiens;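 further: BJ fibroblasts immortalized with TERT plus LT and ST oncogenes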
[13] = cytotoxicity toward DRD oncogenic fibroblasts, dose response, cell-based, non-viral oncogenic, luminescence (AID 1934); assay type: functional; conditions: Homo sapiens
BJ [14] = assay: cytotoxicity toward Ras-transformed BJeLR fibroblasts, dose response, cell-based, alamar blue fluorescence, cherrypicked samples (AID 2631); assay type: functional; conditions: Homo sapiens;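 further: confirmatory dose-response assay in RAS-dependent BJ fibroblasts engineered with TERT, LT and ST, with cytotoxicity read by fluorescence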
[15] = biological target: T2, Tyrosine-protein phosphatase non-receptor type 7 (Homo sapiens, UniProt P35236); assay: inhibitors of human HePTP phosphatase, […], biochemical, absorbance, leukemia target (AID 521); assay type: functional
T2 sequence (P35236 whole entry): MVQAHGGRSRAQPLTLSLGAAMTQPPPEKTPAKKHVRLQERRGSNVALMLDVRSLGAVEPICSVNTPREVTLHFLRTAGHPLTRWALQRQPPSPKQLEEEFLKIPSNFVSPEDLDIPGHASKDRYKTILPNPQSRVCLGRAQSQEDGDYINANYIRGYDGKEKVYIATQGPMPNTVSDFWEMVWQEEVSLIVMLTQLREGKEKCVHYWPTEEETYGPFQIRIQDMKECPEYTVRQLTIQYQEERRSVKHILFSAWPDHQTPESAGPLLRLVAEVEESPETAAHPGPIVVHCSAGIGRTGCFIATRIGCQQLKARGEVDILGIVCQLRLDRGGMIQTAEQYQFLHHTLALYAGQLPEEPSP

[16] = inhibitors of intracellular T. cruzi replication, confirmation, NIH3T3 host cells, beta-gal luminescence (AID 2044); assay type: functional, cell-based;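 further: intracellular parasites grown in NIH/3T3 mouse fibroblasts as host cells; luminescent beta-galactosidase reporter signal from transgenic T. cruzi replicating inside host cells; inhibitors lower the luminescence signal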
[17] = cytotoxicity toward NIH3T3 fibroblasts, dose response, counter-screen, cell-based, ATP luminescence, mouse fibroblasts (AID 2010); assay type: functional;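 further: cells exposed to compound for about 90 hours before reading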
[18] = biological target: Neuropeptides B/W receptor type 1 (Homo sapiens, UniProt P48145); assay: Fluorescence-based dose response cell-based high throughput screening assay to identify antagonists of the G-protein coupled receptor 7 (GPR7). [Related pubchem assays: 1952 (Screening assay (GPR7 antagonists).), 1880 (Summary AID.)]; assay type: functional
[19] = biological target: Melanin-concentrating hormone receptor 1 (Homo sapiens, UniProt Q99705); assay: Fluorescence-based counterscreen for antagonists of the G-protein coupled receptor 7 (GPR7): cell-based high throughput dose response assay to identify antagonists of the melanin-concentrating hormone receptor 1 (MCHR1).; assay type: functional
[20] = biological target: T3, Heat shock factor protein 1 (Mus musculus, UniProt P38532); assay: inhibition of MG132-induced HSE-luciferase signal, confirmation, cell-based, NIH3T3, luminescence, dose retest (AID 2382); assay type: functional;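 further: NIH3T3 fibroblasts with HSF1-driven luciferase reporter stressed by proteasome inhibitor MG132; luminescence from HSF1-driven luciferase expression after 8 hours of MG132 stress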
T3 sequence (P38532 whole entry): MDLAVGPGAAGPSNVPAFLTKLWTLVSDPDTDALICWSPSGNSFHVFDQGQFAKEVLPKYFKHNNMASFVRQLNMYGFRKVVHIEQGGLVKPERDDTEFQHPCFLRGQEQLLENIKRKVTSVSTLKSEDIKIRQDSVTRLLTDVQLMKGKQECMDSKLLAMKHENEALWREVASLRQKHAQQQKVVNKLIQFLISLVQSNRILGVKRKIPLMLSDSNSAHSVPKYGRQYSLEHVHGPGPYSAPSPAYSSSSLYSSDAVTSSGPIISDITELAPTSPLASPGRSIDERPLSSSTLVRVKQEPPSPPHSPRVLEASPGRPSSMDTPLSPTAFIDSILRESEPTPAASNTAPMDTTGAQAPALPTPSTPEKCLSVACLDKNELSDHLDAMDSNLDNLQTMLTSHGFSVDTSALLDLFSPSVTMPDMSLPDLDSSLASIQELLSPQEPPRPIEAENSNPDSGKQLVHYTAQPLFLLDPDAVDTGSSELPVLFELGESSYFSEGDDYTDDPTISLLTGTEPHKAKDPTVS

[21] = test system: Streptococcus sp. 'group A'; assay: growth inhibition of control SK(-) GAS strain, dose response, counter-screen for streptokinase expression inhibitor project, luminescence, kanamycin, BacTiterGlo, confirmation (AID 1900); assay type: functional, organism-based
Streptokinase A = biological target: T4, Streptokinase A (Streptococcus pyogenes serotype M1, UniProt P10520); assay: S. pyogenes streptokinase expression inhibitors, potency, dose response, plasminogen activation absorbance, OD405 (AID 1914); assay type: functional, Streptococcus pyogenes M1 GAS;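 further: secreted streptokinase activity via plasminogen activation per viability signal from cell pellet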
T4 sequence (P10520 whole entry): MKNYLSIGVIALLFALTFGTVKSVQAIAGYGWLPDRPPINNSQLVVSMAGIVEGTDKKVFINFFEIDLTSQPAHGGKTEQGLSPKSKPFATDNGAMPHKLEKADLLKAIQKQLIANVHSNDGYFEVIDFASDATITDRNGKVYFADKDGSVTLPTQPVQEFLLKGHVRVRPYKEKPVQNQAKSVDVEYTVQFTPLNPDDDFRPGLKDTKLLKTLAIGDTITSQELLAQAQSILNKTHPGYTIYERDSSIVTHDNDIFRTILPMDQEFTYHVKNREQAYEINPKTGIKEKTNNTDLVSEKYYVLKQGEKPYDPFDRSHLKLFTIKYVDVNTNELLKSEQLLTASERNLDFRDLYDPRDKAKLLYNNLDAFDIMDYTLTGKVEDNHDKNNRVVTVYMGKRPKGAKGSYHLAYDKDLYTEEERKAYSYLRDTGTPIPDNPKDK

[22] = biological target: Voltage-gated inwardly rectifying potassium channel KCNH2 (Homo sapiens, UniProt Q12809); assay: hERG protection from proarrhythmic block, potency, dose response, cell-based, thallium flux (AID 2121); assay type: ADME
Streptococcus = assay: Group A Streptococcus viability loss, dose response, counter-screen for streptokinase expression inhibitor project, luminescence, BacTiterGlo (AID 1915); assay type: functional, organism-based;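 further: potency for reduction of bacterial viability or growth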
[23] = biological target: 5-hydroxytryptamine receptor 1A (Homo sapiens, UniProt P08908); assay type: functional
Ephrin type-A receptor 4 = Ephrin type-A receptor 4 (Mus musculus, UniProt Q03137); assay: inhibitors of EphA4 binding to KYL peptide, primary screen, biochemical, colorimetric, mouse EphA4 (AID 689); assay type: functional
Estrogen receptor beta [24] = biological target: T5, Estrogen receptor beta (Homo sapiens, UniProt Q92731);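 further: recombinant ER-beta bound to coactivator SRC1 peptide in presence of estradiol agonist; inhibitors block coactivator peptide binding and lower the FRET signal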
Estrogen receptor beta [25] = biological target: T5, Estrogen receptor beta; assay: ERβ–SRC-3 coactivator interaction inhibitors, confirmation, orthogonal assay, biochemical, ELISA, streptavidin-HRP readout (AID 1060)
[26] = biological target: E3 ubiquitin-protein ligase Mdm2 (Homo sapiens, UniProt Q00987); assay: enhancers of MDM2-luciferase reporter signal, concentration-effect titration, project on inhibitors of MDM2 ubiquitin ligase, cellular assay, luminescent readout, 384-well plate format (AID 1394); assay type: functional;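 further: MDM2 E3 inhibitors raise luminescence so EC50 is for signal enhancement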
[27] = Dose-response inhibition of insulin secretion in a rat insulinoma line at 5 mM glucose (AID 1117331); assay type: functional, cell-based; conditions: INS-1E
[28] = half-maximal inhibitory concentration for glucagon-like peptide-1 release, STC-1 cell line, dose-response (AID 1117345); assay type: functional, cell-based
[29] = Glucagon-like peptide 1 release potency, NCI-H716 cell line, dose-response, half-maximal inhibitory concentration (AID 1117344); assay type: functional, cell-based
NADPH oxidase 1 = biological target: T6, NADPH oxidase 1 (Homo sapiens, UniProt Q9Y5S8); assay type: functional, cell-based;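 further: Cell-based assay with luminescence read-out, IC50 derived from inhibitor dose-response curves; intracellular ROS from endogenous NOX1 in intact HT29 colon cancer cells; potency of inhibitors that lower the ROS luminescence signal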
T6 sequence (Q9Y5S8 whole entry): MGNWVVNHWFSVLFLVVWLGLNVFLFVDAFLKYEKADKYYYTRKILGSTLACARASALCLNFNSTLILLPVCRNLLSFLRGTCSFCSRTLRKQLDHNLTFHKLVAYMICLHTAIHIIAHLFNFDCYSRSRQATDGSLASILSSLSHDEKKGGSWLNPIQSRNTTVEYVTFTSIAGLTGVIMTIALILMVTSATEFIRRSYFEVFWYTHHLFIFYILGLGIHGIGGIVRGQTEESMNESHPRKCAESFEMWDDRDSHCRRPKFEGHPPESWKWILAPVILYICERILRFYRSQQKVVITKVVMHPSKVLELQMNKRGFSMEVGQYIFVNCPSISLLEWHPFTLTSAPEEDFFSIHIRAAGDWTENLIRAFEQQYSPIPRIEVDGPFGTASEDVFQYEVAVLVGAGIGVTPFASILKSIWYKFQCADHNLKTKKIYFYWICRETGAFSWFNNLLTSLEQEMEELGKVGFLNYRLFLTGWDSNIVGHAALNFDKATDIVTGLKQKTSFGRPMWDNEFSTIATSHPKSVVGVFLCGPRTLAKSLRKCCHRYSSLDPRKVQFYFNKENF

T1 sequence (P98170 whole entry): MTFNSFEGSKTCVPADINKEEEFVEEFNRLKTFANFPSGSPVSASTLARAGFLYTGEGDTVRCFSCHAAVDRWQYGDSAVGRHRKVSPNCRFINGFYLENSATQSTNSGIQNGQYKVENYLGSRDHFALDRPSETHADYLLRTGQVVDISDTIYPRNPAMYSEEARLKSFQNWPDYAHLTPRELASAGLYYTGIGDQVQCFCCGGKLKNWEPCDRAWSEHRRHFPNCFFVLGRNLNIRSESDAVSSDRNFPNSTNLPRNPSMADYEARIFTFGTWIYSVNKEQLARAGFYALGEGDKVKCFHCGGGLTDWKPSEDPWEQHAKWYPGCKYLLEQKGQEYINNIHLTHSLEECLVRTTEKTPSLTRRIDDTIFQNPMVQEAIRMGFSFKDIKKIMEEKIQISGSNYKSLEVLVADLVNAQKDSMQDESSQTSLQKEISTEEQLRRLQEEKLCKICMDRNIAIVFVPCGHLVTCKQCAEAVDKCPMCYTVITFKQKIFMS
T5 sequence (Q92731 whole entry): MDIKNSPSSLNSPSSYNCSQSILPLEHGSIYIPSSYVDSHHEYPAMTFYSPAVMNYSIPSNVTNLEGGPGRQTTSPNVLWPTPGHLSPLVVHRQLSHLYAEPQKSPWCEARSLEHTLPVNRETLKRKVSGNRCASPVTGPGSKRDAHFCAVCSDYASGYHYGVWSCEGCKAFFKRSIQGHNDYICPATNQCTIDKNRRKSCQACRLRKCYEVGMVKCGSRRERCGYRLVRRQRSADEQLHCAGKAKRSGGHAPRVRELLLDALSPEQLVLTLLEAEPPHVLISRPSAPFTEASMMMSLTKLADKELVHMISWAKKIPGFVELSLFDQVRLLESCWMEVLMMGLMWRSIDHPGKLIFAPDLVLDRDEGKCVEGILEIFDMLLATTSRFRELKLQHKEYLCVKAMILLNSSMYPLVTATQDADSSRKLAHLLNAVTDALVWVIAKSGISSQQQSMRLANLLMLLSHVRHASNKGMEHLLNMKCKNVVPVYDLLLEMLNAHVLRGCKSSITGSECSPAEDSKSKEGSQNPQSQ
E3 ubiquitin-protein ligase Mdm2, sequence (Q00987 whole entry): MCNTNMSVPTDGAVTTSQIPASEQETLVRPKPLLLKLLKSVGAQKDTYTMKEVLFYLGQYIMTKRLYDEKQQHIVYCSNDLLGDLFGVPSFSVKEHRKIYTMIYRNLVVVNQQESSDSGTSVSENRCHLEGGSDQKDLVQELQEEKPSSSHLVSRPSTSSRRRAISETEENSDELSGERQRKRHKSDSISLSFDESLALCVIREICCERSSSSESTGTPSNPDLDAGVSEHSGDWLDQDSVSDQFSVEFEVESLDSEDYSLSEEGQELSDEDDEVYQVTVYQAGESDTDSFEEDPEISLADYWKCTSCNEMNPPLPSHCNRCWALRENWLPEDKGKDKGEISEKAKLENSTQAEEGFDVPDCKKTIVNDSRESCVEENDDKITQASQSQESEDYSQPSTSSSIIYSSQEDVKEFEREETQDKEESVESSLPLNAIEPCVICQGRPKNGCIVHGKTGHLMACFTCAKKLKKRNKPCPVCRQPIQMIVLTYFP
5-hydroxytryptamine receptor 1A, sequence (P08908 whole entry): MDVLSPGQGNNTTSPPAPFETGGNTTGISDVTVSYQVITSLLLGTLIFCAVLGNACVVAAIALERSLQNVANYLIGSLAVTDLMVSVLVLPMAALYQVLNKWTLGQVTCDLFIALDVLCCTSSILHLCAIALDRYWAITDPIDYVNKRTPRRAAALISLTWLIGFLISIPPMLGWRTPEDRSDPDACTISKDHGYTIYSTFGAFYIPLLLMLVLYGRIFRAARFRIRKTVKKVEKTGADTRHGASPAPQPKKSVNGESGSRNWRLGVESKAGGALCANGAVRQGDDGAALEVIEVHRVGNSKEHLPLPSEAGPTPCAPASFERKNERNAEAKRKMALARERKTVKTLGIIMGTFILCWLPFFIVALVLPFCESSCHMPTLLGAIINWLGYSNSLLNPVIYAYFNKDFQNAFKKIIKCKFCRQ
Peroxisome proliferator-activated receptor gamma/Nuclear receptor corepressor 2, sequence (P37231 whole entry): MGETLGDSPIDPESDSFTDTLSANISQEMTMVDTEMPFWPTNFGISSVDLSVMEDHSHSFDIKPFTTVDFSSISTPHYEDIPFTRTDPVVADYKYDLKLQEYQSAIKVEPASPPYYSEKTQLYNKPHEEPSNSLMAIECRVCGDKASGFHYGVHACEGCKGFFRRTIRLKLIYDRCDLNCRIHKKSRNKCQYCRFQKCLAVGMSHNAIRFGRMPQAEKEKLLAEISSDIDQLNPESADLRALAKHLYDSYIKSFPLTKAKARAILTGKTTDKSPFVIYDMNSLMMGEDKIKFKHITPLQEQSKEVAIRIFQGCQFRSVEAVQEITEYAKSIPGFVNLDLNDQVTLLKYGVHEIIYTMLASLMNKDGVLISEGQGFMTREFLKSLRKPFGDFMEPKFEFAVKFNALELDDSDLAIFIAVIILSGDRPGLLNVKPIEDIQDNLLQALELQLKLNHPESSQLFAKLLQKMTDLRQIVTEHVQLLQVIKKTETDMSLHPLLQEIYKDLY
Peroxisome proliferator-activated receptor gamma/Nuclear receptor corepressor 2, sequence (Q9Y618 whole entry): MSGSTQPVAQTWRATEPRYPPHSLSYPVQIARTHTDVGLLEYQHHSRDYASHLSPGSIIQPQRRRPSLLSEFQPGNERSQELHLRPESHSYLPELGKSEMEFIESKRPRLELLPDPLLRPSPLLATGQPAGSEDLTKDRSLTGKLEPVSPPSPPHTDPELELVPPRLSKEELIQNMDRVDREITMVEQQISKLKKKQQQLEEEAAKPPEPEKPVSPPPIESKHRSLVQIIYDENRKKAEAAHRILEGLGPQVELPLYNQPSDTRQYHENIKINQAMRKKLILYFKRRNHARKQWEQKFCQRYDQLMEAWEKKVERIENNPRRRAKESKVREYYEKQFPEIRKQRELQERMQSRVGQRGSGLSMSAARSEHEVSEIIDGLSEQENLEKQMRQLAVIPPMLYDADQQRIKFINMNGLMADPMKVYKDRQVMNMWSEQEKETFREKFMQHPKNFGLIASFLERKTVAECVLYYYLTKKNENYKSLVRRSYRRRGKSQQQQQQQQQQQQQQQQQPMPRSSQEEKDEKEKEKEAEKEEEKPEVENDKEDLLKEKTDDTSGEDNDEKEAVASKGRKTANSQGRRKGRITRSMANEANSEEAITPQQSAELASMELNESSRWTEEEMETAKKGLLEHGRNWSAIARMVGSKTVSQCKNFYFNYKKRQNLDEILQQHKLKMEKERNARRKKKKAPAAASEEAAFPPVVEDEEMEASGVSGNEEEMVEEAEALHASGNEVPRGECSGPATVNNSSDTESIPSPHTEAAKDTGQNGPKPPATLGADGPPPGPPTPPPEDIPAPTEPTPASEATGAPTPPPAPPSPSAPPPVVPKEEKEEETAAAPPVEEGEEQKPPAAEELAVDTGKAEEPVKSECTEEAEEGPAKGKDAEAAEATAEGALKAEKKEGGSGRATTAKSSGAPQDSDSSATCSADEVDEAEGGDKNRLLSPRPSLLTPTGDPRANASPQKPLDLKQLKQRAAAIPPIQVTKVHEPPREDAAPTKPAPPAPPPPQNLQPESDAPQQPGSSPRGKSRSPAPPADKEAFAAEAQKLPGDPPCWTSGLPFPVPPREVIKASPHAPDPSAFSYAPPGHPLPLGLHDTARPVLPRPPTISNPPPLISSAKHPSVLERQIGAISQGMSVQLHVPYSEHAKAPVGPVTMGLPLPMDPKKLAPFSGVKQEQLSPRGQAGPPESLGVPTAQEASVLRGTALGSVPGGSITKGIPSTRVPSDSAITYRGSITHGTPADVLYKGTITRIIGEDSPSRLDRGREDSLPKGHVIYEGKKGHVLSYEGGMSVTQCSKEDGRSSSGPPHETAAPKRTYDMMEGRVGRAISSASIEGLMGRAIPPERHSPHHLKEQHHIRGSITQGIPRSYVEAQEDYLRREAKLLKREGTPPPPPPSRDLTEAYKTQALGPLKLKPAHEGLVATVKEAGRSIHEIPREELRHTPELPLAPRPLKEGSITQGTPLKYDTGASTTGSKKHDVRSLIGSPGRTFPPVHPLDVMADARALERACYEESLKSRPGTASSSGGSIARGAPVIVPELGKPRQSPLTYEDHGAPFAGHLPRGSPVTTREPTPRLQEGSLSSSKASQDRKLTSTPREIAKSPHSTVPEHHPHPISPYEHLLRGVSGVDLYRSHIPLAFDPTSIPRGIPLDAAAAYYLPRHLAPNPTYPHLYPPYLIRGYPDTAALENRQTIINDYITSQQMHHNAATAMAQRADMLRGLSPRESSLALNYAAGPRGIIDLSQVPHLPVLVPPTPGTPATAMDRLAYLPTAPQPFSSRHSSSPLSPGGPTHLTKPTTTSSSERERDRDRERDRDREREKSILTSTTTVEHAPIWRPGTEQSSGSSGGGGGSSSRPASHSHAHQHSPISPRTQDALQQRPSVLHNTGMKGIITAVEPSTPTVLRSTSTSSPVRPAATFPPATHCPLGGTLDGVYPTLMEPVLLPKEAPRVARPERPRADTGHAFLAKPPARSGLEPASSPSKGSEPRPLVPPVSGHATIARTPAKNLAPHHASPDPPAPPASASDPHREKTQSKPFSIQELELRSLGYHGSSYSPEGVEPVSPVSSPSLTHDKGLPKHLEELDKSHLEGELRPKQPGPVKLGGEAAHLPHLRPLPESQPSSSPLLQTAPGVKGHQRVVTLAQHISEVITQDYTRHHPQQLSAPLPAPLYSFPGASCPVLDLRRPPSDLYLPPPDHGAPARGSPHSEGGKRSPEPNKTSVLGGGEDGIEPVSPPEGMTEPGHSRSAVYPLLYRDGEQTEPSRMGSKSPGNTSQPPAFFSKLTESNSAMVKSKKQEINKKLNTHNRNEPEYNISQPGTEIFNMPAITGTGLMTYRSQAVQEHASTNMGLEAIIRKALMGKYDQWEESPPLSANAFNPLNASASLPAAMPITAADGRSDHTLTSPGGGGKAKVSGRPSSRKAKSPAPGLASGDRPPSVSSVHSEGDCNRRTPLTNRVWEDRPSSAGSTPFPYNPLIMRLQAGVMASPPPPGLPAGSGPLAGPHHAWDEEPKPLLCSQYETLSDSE

CCCSC1=C(C#N)C(c2ccc(Cl)cc2Cl)CC(=O)N1 (stereo not drawn)
IC50 [1]: > 25 µM (active)

COC(=O)/C=C/c1ccc(OC(=O)OC)c(OC(=O)OC)c1
IC50 [2]: 2.64 µM (active)
IC50 (Large T antigen): 12.1 µM (active)
IC50 [3]: > 100 µM (inactive)
IC50 [4]: > 100 µM (not active)
IC50 (H9c2): > 79 µM (inactive)

CCN(C(=O)c1cnc(OC)cc1C(F)(F)F)c1ccc(Cl)cc1Cl
EC50 (Mucolipin-3): 4.59 µM (active)
EC50 (Ion channel NompC): 8.86 µM (active)
IC50 [5]: > 109 µM (inactive)
IC50 [6]: > 83.3 µM (inactive)

COc1ccc(N2CCN(CC(=O)Nc3ccccc3C(=O)NCc3ccccc3)CC2)cc1
IC50 [7]: 3.53 µM (active)
IC50 [8]: 3.67 µM (active)

CC(C)(C)c1ccc(C(=O)Nc2ccc(C(=O)NCc3cccnc3)cc2)cc1
EC50 (BJ [9]): 25.5 µM (active)
EC50 (BJ [10]): 0.515 µM (active)
IC50 [11]: 0.177 µM (active)
EC50 (BJ [12]): 0.88 µM (inconclusive)
EC50 [13]: > 150 µM (not active)
EC50 (BJ [14]): 0.549 µM (active)

O=C(Nc1ccc2c(c1)OCO2)NC1CCN(Cc2ccccc2)CC1
IC50 [15]: > 100 µM (not active)
EC50 [16]: 1 µM (active)
EC50 [17]: > 60 µM (not active)

CCCC(CCC)C(=O)Nc1ccc2c(c1)N(C(=O)CCN1CCN(C)CC1)c1ccccc1CC2
IC50 [18]: 7.8 µM (active)
IC50 [19]: 15.7 µM (not active)
EC50 [20]: > 195 µM (not active)

COc1ccc(N2CCN(C(=S)NC(=O)c3cccs3)CC2)c([N+](=O)[O-])c1
EC50 [21]: 9.37 µM (active)
EC50 (Streptokinase A): > 150 µM (not active)
EC50 [22]: 12.2 µM (active)
EC50 (Streptococcus): 24.5 µM (active)

CN(C)CCCn1c(NC(=O)C2CCCCC2)nc2ccccc21
EC50 [23]: > 50 µM (not active)

CCCCOP(=O)(OCCCC)/C(C#N)=C(/C)O
IC50 (Ephrin type-A receptor 4): > 100 µM (not active)

COc1ccccc1N1CCN(C(=O)c2ccc3nc(-c4ccco4)c(-c4ccco4)nc3c2)CC1
IC50 (Estrogen receptor beta [24]): 5.96 µM (active)
IC50 (Estrogen receptor beta [25]): 9.53 µM (not active)
IC50 (H9c2): 11.7 µM (active)

CC(=O)NC1C(=O)N=C(SCC(=O)NC(C)c2ccccc2)NC1=O (stereo not drawn)
EC50 [26]: 1.67 µM (not active)

CC(C)(C)CC(C)(C)c1ccc(O)c(Cc2ccc(Cl)cc2Cl)c1 [CLOFOCTOL]
IC50 [27]: > 33.3 µM (inactive)
IC50 [28]: 0.544 µM (active)
IC50 [29]: 9.07 µM (inactive)

O=C(O)c1nc(Cl)c(Cl)c(N/N=C/c2ccccc2)c1Cl
IC50 (NADPH oxidase 1): > 17 µM (not active)

— ChEMBL document CHEMBL1201862, “PubChem BioAssay data set” (2004)
